Experiments:
[1] = tested on: IL-6; experiment: Colon cytokine mRNA by RT-PCR, IL-6; type: in vivo, mouse; details: seven oral doses over 14 days; vs untreated
Protocol: (§5) Colitis was induced as stated above and mice were randomly assigned to healthy, HCQ, and pCQ treatment groups (n=5) and untreated group (n=8). Starting day 1, the mice received oral gavage of either HCQ or pCQ every other day (30 mg/kg HCQ equivalent in 200 μl sterile deionized water). Untreated and healthy controls were administered 200 μl sterile deionized water. On day 14, the mice were sacrificed and the colons were harvested. The colon was opened longitudinally, cleaned of fecal matter, and excised into two parts along the length, which were stored accordingly for determination of cytokine mRNA levels by RT-PCR and histological analysis.
(§6) Colon samples from the therapeutic study were stored in RNAlater™ (Thermo Fisher Scientific Inc.) at 4° C. for 48 hours to allow sufficient time for tissue penetration followed by removal of excess solution. The tissues were then stored at −80° C. until further processing. […] The extracted mRNA was quantified using Nanodrop Onec UV-Vis spectrophotometer (Thermo Fisher Scientific Inc.). […] A volume corresponding to 1 μg of RNA as determined by UV spectrometer was used for cDNA synthesis. […] Results obtained from the RT-PCR were analyzed by Ct method to determine the fold change in gene expression.

[2] = Liver pharmacokinetics and distribution after single oral dose in colitis mice; type: in vivo; details: male, C57BL/6, mouse, single oral dose 30 mg/kg CQ equivalent, pCQ = total HCQ
Protocol: (§1) Male C57BL/6 mice (6 weeks old, 18-20 g) were obtained from Charles River Laboratories and used for all in vivo studies. All animal experiments were conducted according to the protocol approved by the University of Nebraska Medical Center Institutional Animal Care and Use Committee. C. rodentium was used to induce colitis in mice. Bacterial glycerol stock was streaked onto LB agar plates and the bacterial colonies were grown overnight at 37° C. A single colony was inoculated into 5 ml of 2% LB broth and incubated at 37° C., 280 rpm overnight to obtain a saturated primary culture. On the day of the experiment (Day 0), 2 ml of the primary culture was added into 300 ml of LB broth and the inoculum was placed on a shaker at 37° C. at 280 rpm for 6 hours. Bacterial optical density was measured at 600 nm. Bacteria were diluted with LB broth and delivered to mice (n=15) via oral gavage in a 100 μL volume containing 5×10^8 colony forming units (CFU). Healthy control group (n=5) was orally administered 100 μL of LB broth.
(§2) The pharmacokinetics and biodistribution of single dose pCQ was evaluated in a mouse model of IBD. Colitis was induced as described above and on day 14, mice were given a single dose of HCQ or pCQ in 200 μl of deionized water via oral gavage equivalent to 30 mg/kg HCQ. Blood was collected from the submandibular vein at 0.5, 1, 2, 4, 8, and 24 h post-administration. The animals were sacrificed, and organs harvested at 0.5, 2, 8, and 24 h post-administration and stored at −80° C. until further use. The mice were randomized to selected sampling times so that three blood samples and one terminal tissue collection were obtained from each.
(§3) Blood, tissue and fecal samples were processed by two methods to determine free HCQ and total HCQ. For the first method, HCQ was isolated by a simple extraction from the organs as described in Murry et al., J. Chrom. B., (2018) 1072, 320-327. The second method utilized base hydrolysis to release HCQ covalently bound to pCQ and subsequent HCQ extraction using solid phase extraction (SPE). Tissues and feces were homogenized in water prior to loading to the SPE cartridge. The calibration and quality control samples were separately prepared for HCQ and pCQ by spiking 10 μl of appropriate calibration stock of HCQ and pCQ, in 100 μl of blank biomatrix, and 10 μl of internal standard solution (1.0 μg/ml) added. For the study, 25 μl of blood and 100 μl of tissue homogenate were used. 400 μl of 1 M NaOH, 600 μl water and 100 μl methanol were added and the samples were incubated at 50° C. for 1 h to hydrolyze HCQ from the pCQ. […]
(§4) The pharmacokinetic parameters of HCQ and pCQ in blood and tissues were calculated using non-compartmental analysis with Phoenix WinNonlin 6.3 (Pharsight Corporation). […]

[3] = tested on: CD68 positive cells; experiment: Macrophage infiltration in the colon (CD68 staining); type: in vivo, mouse; details: oral gavage every other day, 30 mg/kg HCQ equivalent, day 14; vs untreated
Protocol: as §5

[4] = tested on: mice with C. rodentium colitis; experiment: Therapeutic efficacy, colon histology (H&E) in C. rodentium colitis; type: in vivo, mouse; details: oral gavage every other day, 30 mg/kg HCQ equivalent, vs untreated
Protocol: Male C57BL/6 mice (6 weeks old, 18-20 g) were obtained from Charles River Laboratories and used for all in vivo studies. All animal experiments were conducted according to the protocol approved by the University of Nebraska Medical Center Institutional Animal Care and Use Committee. C. rodentium was used to induce colitis in mice. Bacterial glycerol stock was streaked onto LB agar plates and the bacterial colonies were grown overnight at 37° C. A single colony was inoculated into 5 ml of 2% LB broth and incubated at 37° C., 280 rpm overnight to obtain a saturated primary culture. […] Bacterial optical density was measured at 600 nm. […]
The longitudinally opened colons were rolled into a Swiss roll from distal to proximal end. […] The stained sections were evaluated by a pathologist without the knowledge of the identity of the samples using a light microscope. […] Crypt heights were measured using ImageJ software, with 10 measurements taken in distal colons of each mouse. Only well-oriented and intact crypts were measured. […] CC3 positive cells in the entire colon roll were counted at 20× magnification. Results were expressed as mean CC3 positive cells per entire colon roll. CD68 positive cells were counted in five randomly chosen areas in the colon roll at high power field (HPF). Results were expressed as mean of CD68 positive cells per HPF.

[5] = Colon pharmacokinetics and distribution after single oral dose in colitis mice; type: in vivo; details: male, C57BL/6, mouse, single oral dose 30 mg/kg CQ equivalent, pCQ = total HCQ
Protocol: as §1, §2, §3, §4

[6] = tested on: IL-2; experiment: Colon cytokine mRNA by RT-PCR, IL-2; type: in vivo, mouse; details: seven oral doses over 14 days; vs untreated
Protocol: as §5, §6

[7] = Blood pharmacokinetics after single oral dose in C. rodentium colitis mice; type: in vivo, mouse; details: for Cmax: pCQ = total (polymer-bound + hydrolyzed) HCQ
Protocol: as §1, §2
Blood, tissue and fecal samples were processed by two methods to determine free HCQ and total HCQ. For the first method, HCQ was isolated by a simple extraction from the organs as described in Murry et al., J. Chrom. B., (2018) 1072, 320-327. The second method utilized base hydrolysis to release HCQ covalently bound to pCQ and subsequent HCQ extraction using solid phase extraction (SPE). Tissues and feces were homogenized in water prior to loading to the SPE cartridge. The calibration and quality control samples were separately prepared for HCQ and pCQ by spiking 10 μl of appropriate calibration stock of HCQ and pCQ, in 100 μl of blank biomatrix, and 10 μl of internal standard solution (1.0 μg/ml) added. For the study, 25 μl of blood and 100 μl of tissue homogenate were used. 400 μl of 1 M NaOH, 600 μl water and 100 μl methanol were added and the samples were incubated at 50° C. for 1 h to hydrolyze HCQ from the pCQ. Subsequently, 400 μ12% formic acid was added and the samples were vortexed for 30 s and centrifuged at 1301×g for 10 min. The SPE was carried out using Oasis HLB 3cc, 60 mg extraction Cartridge (Waters, Inc). Cartridges were pre-conditioned with 1 ml acetonitrile followed by 1 ml water. Samples were loaded to the cartridges and washed with 2 ml of aqueous 15% methanol and dried at high vacuum for 15 min. Analytes were eluted with 2 ml of acetonitrile. The eluents were collected in glass tubes and dried under nitrogen in water bath at 50° C. The dry residues were reconstituted in 400 μ1 0.1% formic acid:methanol mixture (60:40) and centrifuged at 13000×g and 10 μl supernatant was injected into the HPLC. The LC-MS/MS conditions were as previously described. (Murry et al., J. Chrom. B., (2018) 1072, 320-327.) The assay was linear over the range of 1 to 2000 ng/mL.
The pharmacokinetic parameters of HCQ and pCQ in blood and tissues were calculated using non-compartmental analysis with Phoenix WinNonlin 6.3 (Pharsight Corporation). The maximum concentration (Cmax) and time to Cmax (Tmax) were obtained from the visual inspection of the concentration-time plot. […]

[8] = male, C57BL/6, mouse, whole blood, blood, single oral dose 30 mg/kg HCQ equivalent, colitis mice, pCQ = total HCQ

AUC(0-inf) [2]: 176 µg·h/mL
AUC(0-t) [2]: 168 µg·h/mL
Cmax [2]: 12800 ng/mL
Tmax [2]: 2 h
AUC(0-inf) [5]: 209 µg·h/mL
AUC(0-t) [5]: 166 µg·h/mL
Cmax [5]: 10300 ng/mL
Tmax [5]: 8 h
Cmax ([7]; blood, single oral dose 30 mg/kg HCQ equivalent, colitis mice, 30 mg/kg): 2,343 ± 46 ng/ml
AUC0-∞ ([7]; blood, single oral dose 30 mg/kg HCQ equivalent, colitis mice, pCQ = total HCQ, 30 mg/kg): 28,182 ± 1476^ h × ng/ml
bioavailability ([7]; male, C57BL/6, mouse, whole blood, 30 mg/kg, oral vs i.v., read-out: absolute bioavailability (oral to i.v.)): 80%
Cmax ([7]; male, C57BL/6, mouse, whole blood, po, 30 mg/kg, blood, single oral dose 30 mg/kg HCQ equivalent, colitis mice, read-out: Cmax): 2340 ng/mL
AUC(0-inf) ([7]; male, C57BL/6, mouse, whole blood, po, 30 mg/kg, blood, single oral dose 30 mg/kg HCQ equivalent, colitis mice, pCQ = total HCQ): 28.2 µg·h/mL
AUC(0-t) [7, 8]: 26.4 µg·h/mL
CL/F [7, 8]: 18.3 mL/min/kg
MRT [7, 8]: 6.8 ± 0.6 h
Tmax [7, 8]: 3.3 ± 1.2 h
half-life [7, 8]: 5.6 ± 1.9 h
SMILES: CCN(CCO)CCCC(C)Nc1ccnc2cc(Cl)ccc12 (centres unmarked) [HCQ, Hydroxychloroquine]
colon IL-6 expression (mRNA) [1]: statistically significant reduction
macrophage infiltration (CD68 positive cells per HPF) [3]: statistically significant reduction
colon crypt length ([4]; day 14): significantly reduced
colon inflammation and epithelial injury (H&E) ([4]; sacrifice day 14): reduced the colon inflammation and eased the epithelial injury
colon IL-2 expression (mRNA) [6]: upregulated
